The results in this text go back to PubChem BioAssay (NCI).

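48-hour exposure; five concentrations; linearly interpolated endpoints. At the GI50, growth is halved. TGI is the concentration that stops growth completely.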 Where only a bound is given, the exact number is not on record here.

Common to all, as to assay: growth of human tumour cells (NCI), 48 h
For assay [1], the system named is DU-145 prostate.
The test system of assay [2] is HS 578T breast.
Assay [3] deals with MDA-MB-231 breast.
Assay [4] deals with MOLT-4 leukemia.
For assay [5], the system named is NCI-H23 lung.
The test system of assay [6] is PC-3 prostate.
Assay [7] has as its system SK-MEL-5 melanoma.
Assay [8] concerns SNB-75 CNS.
For assay [9], the system named is SR leukemia.
In assay [10] the test system is UACC-257 melanoma.

In the case of `O=c1c2ccccc2nc(N/N=C/c2ccc([N+](=O)[O-])cc2)n1-c1ccccc1`, the TGI is greater than 100 µM in assay [1]; 68.1 µM in [2]; greater than 100 µM in assay [3]; greater than 100 µM in assay [4]; greater than 100 µM in [5]; greater than 100 µM in assay [6]. In addition, the TGI in assay [7] was greater than 100 µM; in [8], 56.7 µM; in assay [9] it was greater than 100 µM; in assay [10] it was greater than 100 µM.
As for `COc1cc2nc(N3CCC[C@H](NC4=CC(=O)c5ccccc5C4=O)C3)nc(N)c2cc1OC`, the GI50 in assay [1] was 1.96 µM; in assay [2] it was 1.97 µM; in assay [3] it was 1.63 µM; in assay [4], 2.37 µM; in assay [5], 1.99 µM; in [6], 1.75 µM. Besides, the GI50 in assay [7] was 1.73 µM; in assay [8], 1.64 µM; in assay [9] it was 0.28 µM; in [10], 2.18 µM. Also, the TGI in [1] was found to be 3.58 µM; in assay [2], 4.64 µM; in assay [3], 3.3 µM; in assay [4], 5.9 µM; in [5] it was 4.13 µM; in assay [6], 3.67 µM. The TGI in assay [7] turned out to be 3.26 µM; in assay [8], 3.3 µM; in [9], 2.94 µM; in assay [10], 3.94 µM.
For `CC(=O)OCC1OC(SC2=NC(=O)CS2)C(OC(C)=O)C(OC(C)=O)C1OC(C)=O` (stereo unspecified), the TGI in [1], in [2], in [3], in [4], in [5] and in [6] was greater than 100 µM in each case. Further, the TGI in [7], in [8], in assay [9] and in assay [10] was greater than 100 µM in each case.
As to `Cc1cc(C)nc(NS(=O)(=O)c2ccc(NNc3c4ccccc4nc4c(C(=O)Nc5ccc(S(=O)(=O)Nc6cc(C)on6)cc5)cccc34)cc2)n1`, the TGI in assay [1] is greater than 100 µM; in [2], greater than 100 µM; in [3], 94.4 µM; in assay [4] it was 82.2 µM; in [5], greater than 100 µM; in assay [6] it was greater than 100 µM. Also, the TGI in [7] is greater than 100 µM; in [8], 86 µM; in assay [9], 72.8 µM; in assay [10], greater than 100 µM.
As to `CC(CCc1nc2ccccc2s1)(c1ccc(O)cc1)c1ccc(O)cc1`, the TGI in assay [1] is 31.6 µM; in assay [2], 52.9 µM; in assay [3] it was 32 µM; in [4], 42.9 µM; in assay [5] it was 32 µM; in [6] it was 27.9 µM. Further, the TGI in assay [7] is 33.1 µM; in [8], 34 µM; in assay [9], 53.3 µM; in [10], 28.7 µM.
Turning to `Cc1nc2ccc(Cl)cc2c2c1CCO2`, the TGI in assay [1], in assay [2], in assay [3], in assay [4], in assay [5] and in assay [6] was greater than 100 µM throughout. The TGI in assay [7], in assay [8], in assay [9] and in [10] was greater than 100 µM in each case.
For `CC(=O)CC(=O)N1CCSC1=S`, the TGI in assay [1], in assay [2], in assay [3], in assay [4], in [5] and in assay [6] was greater than 10 µM in each case. In addition, the TGI in [7], in assay [8], in [9] and in assay [10] was greater than 10 µM throughout.
For `CCCC1=C(OC)C(=O)c2c(C)cc(Cl)nc2C1=O`, the TGI in [1] is 28.6 µM; in assay [2], greater than 47 µM; in assay [3] it was 19.5 µM; in [4], 3.72 µM; in assay [5], 13.7 µM; in [6], 26.4 µM. Besides, the TGI in assay [7] turned out to be 16.7 µM; in assay [8] it was 20.1 µM; in [9] it was 5.11 µM; in [10], 19.7 µM.
For the compound `O=C1C=CC(=O)c2c(O)c(N3CCOCC3)c(Cl)c(O)c21`, the TGI in [1] is 2.93 µM; in [2], 1.7 µM; in [3], 0.612 µM; in [4] it was greater than 2.13 µM; in assay [5] it was 0.589 µM; in [6], 1.56 µM. For the same compound, the TGI in assay [7] was 0.822 µM; in assay [8], 2.04 µM; in assay [9], greater than 7.34 µM; in assay [10] it was 0.911 µM.
As to `C=C(Br)C[N+]12CN3CN(CN(C3)C1)C2`, the TGI in assay [1], in [2], in [3], in assay [4], in [5] and in assay [6] was greater than 100 µM each time. The TGI in [7], in [8], in assay [9] and in [10] was greater than 100 µM in each case.
Consider `O=C(Nc1ccc(-n2cc(-c3ccncc3)c(-c3ccc(O)c(Cl)c3)n2)cc1)c1ccc(Cl)c(C(F)(F)F)c1`, for which the GI50 in assay [1] was 3.35 µM; in assay [2] it was 0.702 µM; in assay [3], 0.735 µM; in assay [4] it was 1.69 µM; in assay [5], 2.55 µM; in assay [6], 1.37 µM. Also, the GI50 is 1.46 µM in assay [7], 2.23 µM in assay [8], 1.68 µM in assay [9] and 4.87 µM in assay [10]. Further, the TGI is greater than 50 µM in [1]; 3.1 µM in assay [2]; 1.56 µM in assay [3]; 34.2 µM in assay [4]; greater than 50 µM in [5]; greater than 50 µM in assay [6]. In addition, the TGI is 5.67 µM in assay [7], greater than 50 µM in assay [8], 13 µM in assay [9] and 34.5 µM in assay [10].
Turning to `COC(=O)CCC(=O)NC1=C(Nc2ccccc2)C(=O)c2ccccc2C1=O`, the TGI in [1] was 23.2 µM; in [2], 32.7 µM; in assay [3], 30.1 µM; in assay [4], 38.9 µM; in [5], 12.9 µM; in assay [6], 65.2 µM. In addition, the TGI came to 3.3 µM in assay [7], 33.2 µM in [8], 56.7 µM in [9] and 9.76 µM in [10].
Consider `Cc1cc2nc3ccccc3n2c2ccccc12`, for which the TGI in assay [1], in assay [2], in [3], in assay [4], in assay [5] and in assay [6] was greater than 10 µM each time. Moreover, the TGI in assay [7], in assay [8], in [9] and in [10] was greater than 10 µM in each case.
As for `[N-]=[N+]=Nc1nc2ccccc2c(N=[N+]=[N-])c1Cl`, the TGI in assay [1], in assay [2], in [3], in assay [4], in assay [5] and in assay [6] was greater than 100 µM in each case. Besides, the TGI in assay [7], in assay [8], in assay [9] and in assay [10] was greater than 100 µM each time.
In the case of `Cc1c(OCc2cccc3ccccc23)ccc2c(=O)cc(SCCN3CCOCC3)oc12`, the TGI in assay [1], in [2], in [3], in [4], in [5] and in assay [6] was greater than 100 µM in each case. Also, the TGI in [7], in [8], in assay [9] and in assay [10] was greater than 100 µM each time.
With `COc1cc2c3c(n(C)c(=O)c2cc1OC)-c1cc2c(cc1/C3=C\CCCCCBr)OCO2`, the GI50 in assay [1] is 5.54 µM. Moreover, the TGI in assay [1] was greater than 100 µM; in [2] it was greater than 100 µM; in assay [3], greater than 100 µM; in [4], 10.5 µM; in assay [5], greater than 100 µM; in assay [6] it was greater than 100 µM. Also, the TGI in assay [7] was 20.7 µM; in assay [8], 43 µM; in assay [9] it was 14.1 µM; in assay [10], greater than 100 µM.
As for `COc1cccc(NC(=O)CC(=O)n2nc(-c3ccccc3)c(N=Nc3ccc(Cl)cc3)c2-c2ccccc2)c1`, the TGI in assay [1] is greater than 100 µM; in [2], greater than 82.3 µM; in [3], greater than 100 µM; in assay [4], greater than 59.3 µM; in [5], greater than 78.1 µM; in assay [6] it was greater than 100 µM. In addition, the TGI was 53.8 µM in assay [7], greater than 86.9 µM in assay [8], greater than 73.2 µM in assay [9] and greater than 100 µM in [10].
In the case of `O=C(O)CSC1=NNC2(C(=O)N1)c1ccccc1-c1ccccc12`, the TGI in [1], in assay [2], in [3], in [4], in assay [5] and in assay [6] was greater than 10 µM throughout. For the same compound, the TGI in [7], in assay [8], in assay [9] and in [10] was greater than 10 µM each time.
